Experiment: Evaluation of conversion rate to active form in buffer solution (Experimental Example 1)
Assay type: physicochemical
Details: for Production rate of Alvocidib / Residual rate: 37° C., 25 umol/L in buffer solution; for Stability in buffer solution at pH 5: pH 5, 37° C., up to 2 or 3 hours; for Conversion to Alvocidib at pH 7.4: pH 7.4, 37° C., up to 3 hours
Summary of the method: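 Stability across pH: 25 umol/L, 37° C, 50 mM citrate/phosphate, pH 5.0–7.4. Sampling at 0, 0.5, 1, 2, 3 h; HPLC determined loss of compound and Alvocidib generated.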

## COCCN(CC1CCCCN1)C(=O)Oc1cc(O)c2c(=O)cc(-c3ccccc3Cl)oc2c1[C@H]1CCN(C)C[C@H]1O (stereo partly drawn) [Example 12, 2-(2-chlorophenyl)-5-hydroxy-8-[(3S,4R)-3-hydroxy-1-methylpiperidin-4-yl]-4-oxo-4H-1-benzopyran-7-yl (2-methoxyethyl) [(piperidin-2-yl)methyl]carbamate]
pH5.0, 0 hr
  Production rate of Alvocidib: 0.5%
  Residual rate: 80.7%
  Stability in buffer solution at pH 5: stable
  Conversion to Alvocidib at pH 7.4: rapidly converted to Alvocidib
pH5.0, 0.5 hr
  Production rate of Alvocidib: 1.1%
  Residual rate: 80.3%
pH5.0, 1 hr
  Production rate of Alvocidib: 1.5%
  Residual rate: 79.6%
pH5.0, 2 hr
  Production rate of Alvocidib: 2.3%
  Residual rate: 79.6%
pH5.0, 3 hr
  Production rate of Alvocidib: 3.9%
  Residual rate: 77.3%
pH5.5, 0 hr
  Production rate of Alvocidib: 0.5%
  Residual rate: 80.6%
pH5.5, 0.5 hr
  Production rate of Alvocidib: 1.9%
  Residual rate: 79.9%
pH5.5, 1 hr
  Production rate of Alvocidib: 3.8%
  Residual rate: 77.5%
pH5.5, 2 hr
  Production rate of Alvocidib: 6.9%
  Residual rate: 73.8%
pH5.5, 3 hr
  Production rate of Alvocidib: 9.8%
  Residual rate: 71.2%
pH6.0, 0 hr
  Production rate of Alvocidib: 0.6%
  Residual rate: 80.8%
pH6.0, 0.5 hr
  Production rate of Alvocidib: 6.2%
  Residual rate: 75.4%
pH6.0, 1 hr
  Production rate of Alvocidib: 11.0%
  Residual rate: 70.3%
pH6.0, 2 hr
  Production rate of Alvocidib: 22.5%
  Residual rate: 56.2%
pH6.0, 3 hr
  Production rate of Alvocidib: 26.9%
  Residual rate: 54.0%
pH6.5, 0 hr
  Production rate of Alvocidib: 1.0%
  Residual rate: 80.4%
pH6.5, 0.5 hr
  Production rate of Alvocidib: 16.6%
  Residual rate: 63.8%
pH6.5, 1 hr
  Production rate of Alvocidib: 31.8%
  Residual rate: 39.4%
pH6.5, 2 hr
  Production rate of Alvocidib: 40.5%
  Residual rate: 26.2%
pH6.5, 3 hr
  Production rate of Alvocidib: 52.2%
  Residual rate: 13.4%
pH7.0, 0 hr
  Production rate of Alvocidib: 1.7%
  Residual rate: 80.2%
pH7.0, 0.5 hr
  Production rate of Alvocidib: 33.8%
  Residual rate: 35.8%
pH7.0, 1 hr
  Production rate of Alvocidib: 51.2%
  Residual rate: 15.4%
pH7.0, 2 hr
  Production rate of Alvocidib: 60.2%
  Residual rate: 0.0%
pH7.0, 3 hr
  Production rate of Alvocidib: 62.7%
  Residual rate: 0.0%
pH7.4, 0 hr
  Production rate of Alvocidib: 3.9%
  Residual rate: 77.3%
pH7.4, 0.5 hr
  Production rate of Alvocidib: 51.0%
  Residual rate: 10.8%
pH7.4, 1 hr
  Production rate of Alvocidib: 65.9%
  Residual rate: 0.0%
pH7.4, 2 hr
  Production rate of Alvocidib: 67.3%
  Residual rate: 0.0%
pH7.4, 3 hr
  Production rate of Alvocidib: 63.6%
  Residual rate: 0.0%

## CN1CC[C@H](c2c(OC(=O)N(CCC(F)(F)F)CC3CCCCN3)cc(O)c3c(=O)cc(-c4ccccc4Cl)oc23)[C@H](O)C1 (stereo partly drawn) [Example 13, 2-(2-chlorophenyl)-5-hydroxy-8-[(3S,4R)-3-hydroxy-1-methylpiperidin-4-yl]-4-oxo-4H-1-benzopyran-7-yl [(piperidin-2-yl)methyl](3,3,3-trifluoropropyl)carbamate]
pH5.0, 0 hr
  Production rate of Alvocidib: 2.1%
  Residual rate: 82.1%
  Stability in buffer solution at pH 5: stable
  Conversion to Alvocidib at pH 7.4: rapidly converted to Alvocidib
pH5.0, 0.5 hr
  Production rate of Alvocidib: 3.9%
  Residual rate: 81.7%
pH5.0, 1 hr
  Production rate of Alvocidib: 4.9%
  Residual rate: 80.3%
pH5.0, 2 hr
  Production rate of Alvocidib: 6.3%
  Residual rate: 78.0%
pH5.0, 3 hr
  Production rate of Alvocidib: 8.0%
  Residual rate: 76.1%
pH5.5, 0 hr
  Production rate of Alvocidib: 2.5%
  Residual rate: 82.7%
pH5.5, 0.5 hr
  Production rate of Alvocidib: 5.5%
  Residual rate: 79.2%
pH5.5, 1 hr
  Production rate of Alvocidib: 8.6%
  Residual rate: 74.6%
pH5.5, 2 hr
  Production rate of Alvocidib: 13.9%
  Residual rate: 67.1%
pH5.5, 3 hr
  Production rate of Alvocidib: 17.7%
  Residual rate: 61.8%
pH6.0, 0 hr
  Production rate of Alvocidib: 3.3%
  Residual rate: 81.3%
pH6.0, 0.5 hr
  Production rate of Alvocidib: 11.6%
  Residual rate: 69.8%
pH6.0, 1 hr
  Production rate of Alvocidib: 21.6%
  Residual rate: 56.6%
pH6.0, 2 hr
  Production rate of Alvocidib: 33.3%
  Residual rate: 40.2%
pH6.0, 3 hr
  Production rate of Alvocidib: 42.5%
  Residual rate: 28.3%
pH6.5, 0 hr
  Production rate of Alvocidib: 3.7%
  Residual rate: 81.4%
pH6.5, 0.5 hr
  Production rate of Alvocidib: 27.5%
  Residual rate: 47.7%
pH6.5, 1 hr
  Production rate of Alvocidib: 47.7%
  Residual rate: 22.2%
pH6.5, 2 hr
  Production rate of Alvocidib: 56.7%
  Residual rate: 9.9%
pH6.5, 3 hr
  Production rate of Alvocidib: 65.5%
  Residual rate: 2.8%
pH7.0, 0 hr
  Production rate of Alvocidib: 5.4%
  Residual rate: 78.3%
pH7.0, 0.5 hr
  Production rate of Alvocidib: 49.3%
  Residual rate: 18.7%
pH7.0, 1 hr
  Production rate of Alvocidib: 65.9%
  Residual rate: 2.7%
pH7.0, 2 hr
  Production rate of Alvocidib: 65.1%
  Residual rate: 0.4%
pH7.0, 3 hr
  Production rate of Alvocidib: 69.9%
  Residual rate: 0.0%
pH7.4, 0 hr
  Production rate of Alvocidib: 9.2%
  Residual rate: 68.5%
pH7.4, 0.5 hr
  Production rate of Alvocidib: 65.8%
  Residual rate: 2.2%
pH7.4, 1 hr
  Production rate of Alvocidib: 65.5%
  Residual rate: 0.2%
pH7.4, 2 hr
  Production rate of Alvocidib: 68.6%
  Residual rate: 0.0%
pH7.4, 3 hr
  Production rate of Alvocidib: 66.1%
  Residual rate: 0.0%

From US12617779B2, “Self degradation-type CDK9 inhibitor prodrug and liposome encapsulating same” (Sumitomo Pharma Co., Ltd., priority 2021, dated 2026)
